In brackets after ≈: the same amount, converted by molar mass.
Key:
[1] = test system: Alcaligenes faecalis (ATCC #25094), Enterobacter aerogenes (ATCC #13048), Escherichia coli (ATCC #11229), Pseudomonas aeruginosa (ATCC #10145) and Pseudomonas …; assay: Bacterial challenge test in laboratory-made wallboard joint compound; assay type: cell-based; conditions: 200 ppm total active
From the text: Because this bacterial challenge test is intended to test the performance of in-can preservatives during long-term storage, only the last day of each seven-day challenge is considered important. The test sample was inoculated with bacteria on the first day of each seven-day challenge.
Bacteria were inoculated into the laboratory-made test wallboard joint formulations at approximately 10^6 CFU/g at time equals zero on the first day of each seven-day cycle. Viability of the bacteria was monitored semi-quantitatively through streak analysis 1, 2, and 7 days after inoculation. This procedure was performed twice for a total of two to four seven-day cycles. A rating of “4” indicates heavy growth, while a rating of “0” indicates undetectable growth, defined as <10 CFU/g of material. Samples free of detectable growth after 7 days are considered to be well-preserved.
For comparison, a blank, unpreserved laboratory-made wallboard joint composition is shown, as well as a laboratory-made wallboard joint composition that is preserved with a commercial formaldehyde-producing preservative, comprising 78 wt % of 2,2′,2″-(hexahydro-1,3,5-triazine-1,3,5-triyl)-triethanol (HHT). The various preservatives were added to the laboratory-made wallboard joint compound at the levels shown, in ppm by weight.

[2] = test system: Pseudomonas aeruginosa (ATCC #10145); assay: Minimum Inhibitory Concentration (MIC) testing by microbroth dilution; assay type: cell-based; conditions: ATCC10145, 72 h, 1x Nutrient Broth, 35° C., 3 days, no growth via turbidity

O=c1[nH]sc2ccccc12 [BIT, 1,2-benzisothiazol-3(2H)-one]
Protection of wallboard joint compound in words [1]: neither 200 ppm BIT nor Ziram alone being capable of protecting the wallboard joint compound | MIC [2]: 30.8 µg/mL (≈ 204 µM)
